# Experimental data: paper PMC6973051, “Proline‐Rich Peptides with Improved Antimicrobial Activity against E. coli, K. pneumoniae, and A. baumannii” (Chemmedchem, 2019)
# Ends that are not written are not given here.
# Columns and labels:
# E. coli BW25113 [1] = experiment: Propidium iodide uptake by flow cytometry (membrane permeabilization); type: cell-based, Escherichia coli; details: 1 μM colistin (positive control), 30 min
# Description: The bacterial cell integrity was controlled evaluating the propidium iodide (PI) uptake by flow‐cytometry on a Cytomics FC 500 (Beckman‐Coulter). 10^4 bacterial cells were acquired for each measurement. Mid‐log phase E. coli BW25113 cultures diluted to 10^6 CFU mL^−1 in MHB were exposed for 30 min to 4 μM and 16 μM peptides at 37 °C in the presence of 10 μg mL^−1 PI. Membrane permeabilization was calculated as the % PI‐positive cells, and membrane damage measuring the mean fluorescence intensity (MFI). An untreated control received sterile water instead of peptides. By contrast, bacteria were treated with 1 μM colistin as a permeabilizing control. Data are reported as the average ± standard deviation.
# P. aeruginosa ATCC 27853 [2] = type: cell-based, Pseudomonas aeruginosa
# Source text: (§1) Table 3 MIC and MBC of the native Bac5(1–17) (wt) and selected Bac5‐derivatives on pathogenic and reference bacterial strains. | column: MBC (μM) / wt; MBC (μM) / 258; MBC (μM) / 272; MBC (μM) / 278; MBC (μM) / 281; MBC (μM) / 291
# [3] = system: K. pneumoniae ATCC 700603; type: cell-based, Klebsiella pneumoniae
# Source text: as §1
# S. aureus ATCC 25923 [4] = type: cell-based, Staphylococcus aureus
# Source text: as §1
# [5] = system: E. coli EURL‐VTEC C07 STEC:O157; type: cell-based, Escherichia coli; details: EURL‐VTEC C07 STEC:O157, 18 h
# Source text: (§2) The following bacterial strains were used: Escherichia coli BW25113, E. coli BW25113ΔsbmA (JW0368‐1, KEIO collection21); Acinetobacter baumannii ATCC 19606, Klebsiella pneumoniae ATCC 700603, Pseudomonas aeruginosa ATCC 27853 and Staphylococcus aureus ATCC 25923. The pathogenic E. coli EURL‐VTEC A07, E. coli EURL‐VTEC C07, E. coli SSI‐NN14, E. coli EA22, E. coli SSI‐OO15 and E. coli C679‐12 strains were generously provided by the European Union Reference Laboratory for E. coli, Department of Food Safety, Nutrition and Veterinary Public Health, Istituto Superiore di Sanità, Rome, Italy. All the strains were grown overnight in Müller‐Hinton broth (MHB, Difco) at 37 °C, with shaking (140 rpm). The day after, the overnight bacterial cultures were diluted approx. 1 : 40 in fresh MHB and incubated at 37 °C with shaking (140 rpm) until an OD600nm of ≈0.3 was reached. E. coli BW25113ΔsbmA was grown in the presence of 50 μg mL^−1 kanamycin.
# (§3) Peptides were diluted in 100 μL of MHB to the concentration of 128 μM, dispensed in the first wells of a 96‐wells microtiter plate (round‐bottom) and serially two‐fold diluted with MHB into successive wells in a final volume of 50 μl. Subsequently, 50 μL of a bacterial suspension (5×10^5 CFU mL^−1) were added to each well, halving the final concentration of bacteria and peptides. Bacteria were added to MHB only as bacterial growth‐control, whereas 100 μl of MHB were used to check the medium sterility. The plate was incubated overnight at 37 °C (≈18 hours) and sealed with parafilm to minimise evaporation. The MIC was calculated as the first clear well without bacterial growth. If barely detectable growth was present, the OD600nm of the plate was measured by a multiplate reader Tecan (software Sunrise). The MIC was then calculated as the well whose OD620 was≤1 % of that of the untreated growth control.
# E. coli SSI‐OO15 EIEC = type: cell-based, Escherichia coli; details: 18 h
# Source text: as §2, §3
# [6] = system: E. coli C679‐12 EAEC:0104; type: cell-based, Escherichia coli; details: C679‐12 EAEC:0104, 18 h
# Source text: as §2, §3
# [7] = system: E. coli EURL‐VTEC A07 EPEC:O111; type: cell-based, Escherichia coli; details: EURL‐VTEC A07 EPEC:O111, 18 h
# Source text: as §2, §3
# E. coli EA22 ETEC = type: cell-based, Escherichia coli; details: 18 h
# Source text: as §2, §3
# E. coli BW25113 [8] = type: cell-based, Escherichia coli; details: BW25113, 18 h
# Source text: as §2, §3
# P. aeruginosa ATCC 27853 [9] = type: cell-based, Pseudomonas aeruginosa; details: ATCC 27853, 18 h
# Source text: as §2, §3
# S. aureus ATCC 25923 [10] = type: cell-based, Staphylococcus aureus; details: ATCC 25923, 18 h
# Source text: as §2, §3
# A. baumannii ATCC 19606 [11] = type: cell-based, Acinetobacter baumannii; details: ATCC 19606, 18 h
# Source text: as §2
# Peptides were diluted in 100 μL of MHB to the concentration of 128 μM, dispensed in the first wells of a 96‐wells microtiter plate (round‐bottom) and serially two‐fold diluted with MHB into successive wells in a final volume of 50 μl. […] The MIC was calculated as the first clear well without bacterial growth. If barely detectable growth was present, the OD600nm of the plate was measured by a multiplate reader Tecan (software Sunrise). […]
# A. baumannii ATCC 19606 [12] = type: cell-based, Acinetobacter baumannii
# Source text: as §1
# E. coli BW25113 [13] = type: cell-based, Escherichia coli
# Source text: as §1
substance,measurement,setting,value
colistin,permeabilized bacterial cells (PI‐positive),E. coli BW25113 [1],~100%
RFRPPIRRPPIRPPFYR [compound 258],MBC,P. aeruginosa ATCC 27853 [2],>64 µM
same,MBC,[3],>64 µM
same,MBC,S. aureus ATCC 25923 [4],>64 µM
same,MIC,[5],>64 µM
same,MIC,E. coli SSI‐OO15 EIEC,4 µM
same,MIC,[6],8 µM
same,MIC,[7],8 µM
same,MIC,E. coli EA22 ETEC,2 µM
same,MIC,E. coli BW25113 [8],8 µM
same,MIC,P. aeruginosa ATCC 27853 [9],>64 µM
same,MIC,S. aureus ATCC 25923 [10],>64 µM
same,MIC,A. baumannii ATCC 19606 [11],64 µM
same,MBC,A. baumannii ATCC 19606 [12],64 µM
same,MBC,E. coli BW25113 [13],64 µM
"RFRPPIRRPPIRPPFYP [wt, reference compound]",MBC,P. aeruginosa ATCC 27853 [2],>64 µM
same,MBC,[3],>64 µM
same,MBC,S. aureus ATCC 25923 [4],>64 µM
same,MIC,[5],>64 µM
same,MIC,E. coli SSI‐OO15 EIEC,16 µM
same,MIC,[6],16 µM
same,MIC,[7],16 µM
same,MIC,E. coli EA22 ETEC,2 µM
same,MIC,E. coli BW25113 [8],16 µM
same,MIC,P. aeruginosa ATCC 27853 [9],>64 µM
same,MIC,S. aureus ATCC 25923 [10],>64 µM
same,MIC,A. baumannii ATCC 19606 [11],>64 µM
same,MBC,A. baumannii ATCC 19606 [12],>64 µM
same,MBC,E. coli BW25113 [13],>64 µM
RWRWPIRRPPIRPPFYR [compound 278],MBC,P. aeruginosa ATCC 27853 [2],64 µM
same,MBC,[3],48 µM
same,MBC,S. aureus ATCC 25923 [4],>64 µM
same,MIC,[5],8 µM
same,MIC,E. coli SSI‐OO15 EIEC,1 µM
same,MIC,[6],2 µM
same,MIC,[7],1 µM
same,MIC,E. coli EA22 ETEC,1 µM
same,MIC,E. coli BW25113 [8],2 µM
same,MIC,P. aeruginosa ATCC 27853 [9],16 µM
same,MIC,S. aureus ATCC 25923 [10],>64 µM
same,MBC,A. baumannii ATCC 19606 [12],8 µM
same,MBC,E. coli BW25113 [13],4 µM
RWRRPIRRRPIRPPFWR [compound 291],MBC,P. aeruginosa ATCC 27853 [2],>64 µM
same,MBC,[3],>64 µM
same,MBC,S. aureus ATCC 25923 [4],64 µM
same,MIC,[5],2 µM
same,MIC,E. coli SSI‐OO15 EIEC,1 µM
same,MIC,[6],1 µM
same,MIC,[7],2 µM
same,MIC,E. coli EA22 ETEC,1 µM
same,MIC,E. coli BW25113 [8],2 µM
same,MBC,A. baumannii ATCC 19606 [12],16 µM
same,MBC,E. coli BW25113 [13],8 µM
RFRPPIARPPIRPPFYPG-NH2 [R7A],MIC,E. coli BW25113 [8],>64 µM
RFRPPIRRPPSRPPFYPG-NH2 (C-terminus assumed) [I11S],MIC,E. coli BW25113 [8],>64 µM
RFRPPIRRPPIRPPFAPG-NH2 [Y16A],MIC,E. coli BW25113 [8],64 µM
RFRPPIRRPPIREPFYPG-NH2 [P13E],MIC,E. coli BW25113 [8],>64 µM
RFSPPIRRPPIRPPFYPG-NH2 [R3S],MIC,E. coli BW25113 [8],>64 µM
RSRPPIRRPPIRPPFYPG-NH2 (C-terminus assumed) [F2S],MIC,E. coli BW25113 [8],64 µM
RFRPPIRRPPIRSPFYPG-NH2 [P13S],MIC,E. coli BW25113 [8],64 µM
RFRPPIRRPFIRPPFYPG-NH2 [P10F],MIC,E. coli BW25113 [8],64 µM
RFRPPARRPPIRPPFYPG-NH2 (C-terminus assumed) [I6A],MIC,E. coli BW25113 [8],64 µM
RFRSPIRRPPIRPPFYPG-NH2 (C-terminus assumed) [P4S],MIC,E. coli BW25113 [8],16 µM
RFRPFIRRPPIRPPFYPG-NH2 (C-terminus assumed) [P5F],MIC,E. coli BW25113 [8],32 µM
RFRPPIPRPPIRPPFYPG-NH2 [R7P],MIC,E. coli BW25113 [8],>64 µM
RFPPPIRRPPIRPPFYPG-NH2 [R3P],MIC,E. coli BW25113 [8],64 µM
RWRRPIRRRPIRPPFYW [compound 281],MBC,P. aeruginosa ATCC 27853 [2],48 µM
same,MBC,[3],>64 µM
same,MBC,S. aureus ATCC 25923 [4],32 µM
same,MIC,[5],2 µM
same,MIC,E. coli SSI‐OO15 EIEC,1 µM
same,MIC,[6],2 µM
same,MIC,[7],2 µM
same,MIC,E. coli EA22 ETEC,2 µM
same,MIC,E. coli BW25113 [8],2 µM
same,MBC,A. baumannii ATCC 19606 [12],8 µM
same,MBC,E. coli BW25113 [13],2 µM
RFRPPIRRPPIRPAFYPG-NH2 [P14A],MIC,E. coli BW25113 [8],>64 µM
RFRPPIRRPPARPPFYPG-NH2 (C-terminus assumed) [I11A],MIC,E. coli BW25113 [8],>64 µM
RFRPPIWRPPIRPPFYPG-NH2 [R7W],MIC,E. coli BW25113 [8],64 µM
RFRPPIRRPPIRPPFYAG-NH2 [P17A],MIC,E. coli BW25113 [8],16 µM
RFWPPIRRPPIRPPFYPG-NH2 [R3W],MIC,E. coli BW25113 [8],32 µM
RFRPWIRRPPIRPPFYPG-NH2 (C-terminus assumed) [P5W],MIC,E. coli BW25113 [8],16 µM
RFRWPIRRPPIRPPFYR [compound 272],MBC,P. aeruginosa ATCC 27853 [2],64 µM
same,MBC,[3],>64 µM
same,MBC,S. aureus ATCC 25923 [4],>64 µM
same,MIC,[5],8 µM
same,MIC,E. coli SSI‐OO15 EIEC,1 µM
same,MIC,[6],2 µM
same,MIC,[7],2 µM
same,MIC,E. coli EA22 ETEC,1 µM
same,MIC,E. coli BW25113 [8],4 µM
same,MIC,S. aureus ATCC 25923 [10],>64 µM
same,MBC,A. baumannii ATCC 19606 [12],16 µM
same,MBC,E. coli BW25113 [13],8 µM
